Earlier results, collected in publication PMC12150326 (The Journal of Organic Chemistry, 2025).
Where “and” joins values, the source holds several entries; their conditions need not be identical. Equal entries are not always repeated. Where two headings read alike, the source gives them in different places.

Legend:
Parameters in all cases: method as in NCI-60 database
[1] = test system: MOLT-4; conditions: MOLT-4 ref NCI-60 database, cited from earlier work
[2] = test system: SR; conditions: SR ref NCI-60 database, cited from earlier work
[3] = test system: EKVX; conditions: EKVX ref NCI-60 database, cited from earlier work
[4] = test system: HOP-92; conditions: HOP-92 ref NCI-60 database, cited from earlier work
[5] = test system: NCI-H522; conditions: NCI-H522 ref NCI-60 database, cited from earlier work
[6] = test system: HT29; conditions: HT29 ref NCI-60 database, cited from earlier work
[7] = test system: SW-620; conditions: SW-620 ref NCI-60 database, cited from earlier work
[8] = test system: LOX IMVI; conditions: LOX IMVI ref NCI-60 database, cited from earlier work
[9] = test system: MALME-3M; conditions: MALME-3M ref NCI-60 database, cited from earlier work
[10] = test system: MDA-MB-435; conditions: MDA-MB-435 ref NCI-60 database, cited from earlier work
[11] = test system: SK-MEL-2; conditions: SK-MEL-2 ref NCI-60 database, cited from earlier work
[12] = test system: UACC-257; conditions: UACC-257 ref NCI-60 database; cited from earlier work
[13] = test system: IGROV1; conditions: IGROV1 ref NCI-60 database, cited from earlier work
[14] = test system: SK-OV-3; conditions: SK-OV-3 ref NCI-60 database, cited from earlier work
[15] = test system: RXF 393; conditions: RXF 393 ref NCI-60 database, cited from earlier work
[16] = test system: DU-145; conditions: DU-145 ref NCI-60 database, cited from earlier work
[17] = test system: HS 578T; conditions: HS 578T ref NCI-60 database; cited from earlier work
[18] = test system: LXFL 529; conditions: LXFL 529 ref NCI-60 database, cited from earlier work
[19] = test system: MDA-N; conditions: MDA-N ref NCI-60 database, cited from earlier work
[20] = test system: RXF-631; conditions: RXF-631 ref NCI-60 database, cited from earlier work

In the case of `COc1cc2c(c(OC)c1OC)-c1ccc(OC)c(=O)cc1[C@@H](NC(C)=O)CC2` [Colchicine, (−)-Colchicine], the GI50 [1] is listed as 40 nM, the Log10GI50 [1] is listed as -7.45 Molar and the Log10GI50 ([1]; listed as 757/9) is listed as -7.60 Molar. The Log10LC50 ([1]; listed as 757/9) was -4.90 Molar, the Log10TGI ([1]; listed as 757/9) was under -8.00 Molar and the Log10LC50 ([1]; listed as 757/21) was over -4.00 Molar. The Log10TGI ([1]; listed as 757/21) was over -4.00 Molar, the GI50 [2] was 30 nM and the Log10GI50 [2] was -7.49 Molar. For the same compound, the Log10LC50 [2] was over -4.00 Molar, the Log10GI50 ([2]; listed as 757/9) was under -8.00 Molar and the Log10TGI ([2]; listed as 757/9) was -7.47 Molar. For the same compound, the Log10TGI ([2]; listed as 757/21) was over -4.00 Molar, the GI50 [3] was over 100000 nM and the Log10GI50 [3] was over -4 Molar. For the same compound, the Log10LC50 [3] was over -4.00 Molar, the Log10TGI [3] was over -4.00 Molar and the Log10GI50 ([3]; listed as 757/21) was over -4.00 Molar. For the same compound, the Log10LC50 [4] was over -4.00 Molar, the Log10GI50 ([4]; listed as 757/1) was -7.73 Molar and the Log10TGI ([4]; listed as 757/1) was over -4.00 Molar. For the same compound, the Log10GI50 ([4]; listed as 757/21) was under -8.00 Molar, the GI50 [5] was 10 nM and the Log10GI50 [5] was -7.84 Molar. For the same compound, the Log10LC50 [5] was over -4.00 Molar, the Log10GI50 ([5]; listed as 757/1) was -7.64 Molar and the Log10TGI ([5]; listed as 757/1) was -7.26 Molar. For the same compound, the Log10TGI ([5]; listed as 757/9) was -7.46 Molar, the Log10GI50 ([5]; listed as 757/21) was < -8.00 Molar and -7.98 Molar and -7.84 Molar and the GI50 [6] was 30 nM. For the same compound, the Log10GI50 [6] was -7.55 Molar, the Log10LC50 [6] was over -4.00 Molar and the Log10TGI ([6]; listed as 757/1) was -4.61 Molar. The Log10GI50 ([6]; listed as 757/9) was -7.32 Molar, the Log10TGI ([6]; listed as 757/9) was -6.43 Molar and the GI50 [7] was 20 nM. The Log10GI50 [7] was -7.66 Molar, the Log10LC50 [7] was over -4.00 Molar and the Log10GI50 ([7]; listed as 757/1) was -7.46 Molar. The GI50 [8] was 19 nM, the Log10GI50 [8] was -7.71 Molar and the Log10GI50 ([8]; listed as 757/1) was -7.11 Molar. The Log10LC50 [9] was over -4.00 Molar, the Log10GI50 ([9]; listed as 757/1) was -7.28 Molar and the Log10GI50 ([9]; listed as 757/9) was -7.97 Molar. For the same compound, the GI50 [10] was under 10 nM, the Log10GI50 [10] was under -8 Molar and the Log10LC50 ([10]; listed as 757/9) was under -8.00 Molar. The Log10TGI ([10]; listed as 757/9) was under -8.00 Molar, the Log10GI50 ([10]; listed as 757/21) was under -8.00 Molar and the Log10LC50 ([10]; listed as 757/21) was over -4.00 Molar. The Log10TGI ([10]; listed as 757/21) was -7.50 Molar, the GI50 [11] was under 10 nM and the Log10GI50 [11] was under -8 Molar. The Log10LC50 [11] was over -4.00 Molar, the Log10GI50 ([11]; listed as 757/1) was -7.53 Molar and the Log10TGI ([11]; listed as 757/1) was under -8.00 Molar. The Log10GI50 ([11]; listed as 757/21) was under -8.00 Molar, the Log10TGI ([11]; listed as 757/21) was over -4.00 Molar and the GI50 [12] was over 100000 nM. The Log10GI50 [12] was over -4 Molar, the Log10LC50 [12] was over -4.00 Molar and the Log10TGI [12] was over -4.00 Molar. The GI50 [13] was 52 nM, the Log10GI50 [13] was -7.28 Molar and the Log10LC50 [13] was over -4.00 Molar. For the same compound, the Log10GI50 ([13]; listed as 757/9) was under -8.00 Molar, the Log10TGI ([13]; listed as 757/9) was -7.80 Molar and the Log10TGI ([13]; listed as 757/21) was over -4.00 Molar. The Log10LC50 [14] was over -4.00 Molar, the Log10GI50 ([14]; listed as 757/1) was -4.43 Molar and the Log10TGI ([14]; listed as 757/1) was -4.07 Molar and -4.21 Molar. The Log10GI50 ([14]; listed as 757/9) was -7.55 Molar and -7.81 Molar, the Log10TGI ([14]; listed as 757/9) was -7.17 Molar and the Log10GI50 ([14]; listed as 757/21) was -7.71 Molar and -7.65 Molar. The GI50 [15] was under 10 nM, the Log10GI50 [15] was under -8 Molar and the Log10LC50 [15] was over -4.00 Molar. For the same compound, the Log10GI50 ([15]; listed as 757/1) was under -8.00 Molar, the Log10TGI ([15]; listed as 757/1) was over -4.00 Molar and the Log10GI50 ([15]; listed as 757/9) was -7.93 Molar. The Log10GI50 ([15]; listed as 757/21) was -7.83 Molar and -7.85 Molar, the GI50 [16] was 8320 nM and the Log10GI50 [16] was -5.08 Molar. The Log10LC50 [16] was over -4.00 Molar, the Log10GI50 ([16]; listed as 757/9) was -7.29 Molar and the Log10TGI ([16]; listed as 757/9) was -5.83 Molar. For the same compound, the Log10GI50 ([16]; listed as 757/21) was -5.08 Molar, the Log10TGI ([16]; listed as 757/21) was over -4.00 Molar and the Log10LC50 [17] was over -4.00 Molar. For the same compound, the Log10LC50 [18] was over -4.00 Molar, the Log10TGI [18] was over -4.00 Molar and the Log10GI50 ([18]; listed as 757/21) was < -8.00 Molar and -7.80 Molar. The Log10GI50 [19] was under -8.00 Molar, the Log10LC50 [19] was over -4.00 Molar and the Log10TGI ([19]; listed as 757/9) was < -8.00 Molar and -7.91 Molar. For the same compound, the Log10TGI ([19]; listed as 757/21) was -4.25 Molar, the Log10LC50 [20] was over -4.00 Molar and the Log10TGI [20] was over -4.00 Molar. For the same compound, the Log10GI50 ([20]; listed as 757/21) was -7.45 Molar.
